According to patent EP1803452A1, “ESTER DERIVATIVE AND PHARMACEUTICAL USE THEREOF” (Japan Tobacco, Inc., priority 2004, dated 2006):

How the values were obtained:
[1] = Stability test in buffer (pH 7.4); format: physicochemical; conditions: phosphate buffer/acetonitrile 7:3, 100 mM potassium phosphate buffer (pH 7.4) and acetonitrile 7:3 (v/v), LC/MS; for remaining at 10 min: 10 minutes at 37°C, read-out: Buf. remaining rate (%/10min); for remaining at 1 h: 60 minutes at 37°C, read-out: Buf. remaining rate (%/60min)
Experimental: In the tables, Buf. remaining rate was determined by stability test in buffer (pH 7.4) as described below. A sample dissolved in DMSO was mixed with a mixed solution of 100 mM potassium phosphate buffer and acetonitrile in the ratio of 7:3 (v/v). The mixture was incubated at 37°C for 0, 10, and 60 minutes, and acetonitrile containing formic acid (final concentration: 0.1%) was added thereto. The solution was centrifuged, and the concentration of the sample (unchanged form) in the supernatant was determined by high performance liquid chromatography/mass spectrometry (LC/MS). Based on the data obtained, Buf. remaining rate (%) was calculated according to the following equation. Buf.remaining rate(%) = amount of sample 0,10, or 60 minutes after incubation/amount of sample at zero time after incubation × 100 [formula]

[2] = Metabolic stability test in liver S9; format: in vitro ADME; conditions: pH 7.4, human liver S9 2 mg protein/mL, LC/MS; for remaining at 10 min: unchanged form after 10 minutes at 37°C, read-out: Remaining rate in human liver S9 (%/10min); for remaining at 1 h: unchanged form after 60 minutes at 37°C, read-out: Remaining rate in human liver S9 (%/60min)
Experimental: Human liver S9 (final concentration: 2 mg protein/mL), was suspended in 100 mM potassium phosphate buffer (pH 7.4, containing β-nicotinamide adenine dinucleotide phosphate: 1.3 mM, D-glucose-6- phosphate: 3.3 mM, magnesium chloride: 3.3 mM, glucose-6-phosphate dehydrogenase:0.4 U/mL). The suspension was mixed with a solution of a sample dissolved in DMSO. The solution was incubated at 37°C for 0, 10 and 60 minutes, and an acetonitrile containing formic acid (final concentration: 0.1%) was added thereto. The solutions were centrifuged, and the concentration of the sample (unchanged form) in the supernatant was determined by high performance liquid chromatography/mass spectrometry (LC/MS). Based on the data obtained, remaining rate (%) was calculated according to the following equation. Remaining rate(%) = amount of sample 0,10, or 60 minutes after [formula] incubation/amount of sample at zero time after incubation × 100 [formula]
(§1) With respect to the compounds obtained in Working Examples according to the present invention (Compounds 1-1 to 1-115, 2-1, 3-1, 3-2, and 4-1 to 4-4), the results of the remaining rate in human liver S9 and plasma are shown in Tables 28 to 32.

[3] = Metabolic stability test in plasma; format: in vitro ADME, human; conditions: LC/MS; for remaining at 10 min: unchanged form after 10 minutes at 37°C in human plasma, read-out: Remaining rate in human plasma (%/10min); for remaining at 1 h: unchanged form after 60 minutes at 37°C in human plasma, read-out: Remaining rate in human plasma (%/60min)
Experimental: A sample dissolved in DMSO was added to plasma of human or animal species (mouse and hamster). The solutions were incubated at 37°C for 0, 10 and 60 minutes, and acetonitrile containing formic acid (final concentration: 0.1%) was added thereto. The solutions were centrifuged, and the concentration of the sample (unchanged form) in the supernatant was determined by high performance liquid chromatography/mass spectrometry (LC/MS). Based on the data obtained, the remaining rate (%) was calculated according to the following equation. Remaining rate(%) = amount of sample 0,10, or 60 minutes after incubation/amount of sample at zero time after incubation × 100 [formula]
as §1

Row | remaining at 10 min [1] [%] | remaining at 1 h [1] [%] | remaining at 10 min [2] [%] | remaining at 1 h [2] [%] | remaining at 10 min [3] [%] | remaining at 1 h [3] [%] | SMILES
1 | 100 | 97 | 0 | 0 | 0 | 0 | COC(=O)c1ccc(OC(=O)CCCc2ccc(NC(=O)c3ccc(C)nc3-c3ccc(C(F)(F)F)cc3)c(C(=O)N(C)C)c2)cn1 [Compound 1-32, 5-[4-(3-dimethylcarbamoyl-4-{[6-methyl-2-(4-trifluoromethylphenyl)pyridine-3-carbonyl]amino}phenyl)butyryloxy]pyridine-2-carboxylic acid methyl ester]
2 | 98 | 102 | 0 | 0 | 0 | 0 | COC(=O)c1ccc(OC(=O)CCCc2ccc(NC(=O)c3ccccc3-c3ccc(C(F)(F)F)cc3)c(C(=O)N(C)C)c2)c(C(=O)OC)c1 [Compound 1-33, 4-(4-{3-dimethylcarbamoyl-4-[(4'-trifluoromethylbiphenyl-2-carbonyl)amino]phenyl}butyryloxy)isophthalic acid dimethyl ester]
3 | 98 | 103 | 16 | 4 | 52 | 0 | COC(=O)c1cc(C)c(OC(=O)CCCc2ccc(NC(=O)c3ccccc3-c3ccc(C(F)(F)F)cc3)c(C(=O)N(C)C)c2)c(Cl)c1 [Compound 1-34, 3-chloro-4-(4-{3-dimethylcarbamoyl-4-[(4'-trifluoromethylbiphenyl-2-carbonyl)amino]phenyl}butyryloxy)-5-methylbenzoic acid methyl ester]
4 | 100 | 105 | 5 | 0 | 43 | 0 | COC(=O)c1cc(C)c(OC(=O)CCCc2ccc(NC(=O)c3ccc(C)nc3-c3ccc(C(F)(F)F)cc3)c(C(=O)N(C)C)c2)c(Cl)c1 [Compound 1-35, 3-chloro-4-[4-(3-dimethylcarbamoyl-4-{[6-methyl-2-(4-trifluoromethylphenyl)pyridine-3-carbonyl]amino}phenyl)butyryloxy]-5-methylbenzoic acid methyl ester]
5 | 100 | 103 | 3 | 0 | 0 | 0 | COC(=O)c1cc(Cl)c(OC(=O)CCCc2ccc(NC(=O)c3ccc(C)nc3-c3ccc(C(F)(F)F)cc3)c(C(=O)N(C)C)c2)c(OC)c1 [Compound 1-36, 3-chloro-4-[4-(3-dimethylcarbamoyl-4-{[6-methyl-2-(4-trifluoromethylphenyl)pyridine-3-carbonyl]amino}phenyl)butyryloxy]-5-methoxybenzoic acid methyl ester]
6 | 99 | 99 | 37 | 11 | 0 | 0 | COc1cc(C(=O)OC(C)C)cc(Cl)c1OC(=O)CCCc1ccc(NC(=O)c2ccc(C)nc2-c2ccc(C(F)(F)F)cc2)c(C(=O)N(C)C)c1 [Compound 1-37, 3-chloro-4-[4-(3-dimethylcarbamoyl-4-{[6-methyl-2-(4-trifluoromethylphenyl)pyridine-3-carbonyl]amino}phenyl)butyryloxy]-5-methoxybenzoic acid isopropyl ester]
7 | 101 | 102 | 11 | 2 | 0 | 0 | COc1cc(C(=O)OC(C)C)cc(F)c1OC(=O)CCCc1ccc(NC(=O)c2ccc(C)nc2-c2ccc(C(F)(F)F)cc2)c(C(=O)N(C)C)c1 [Compound 1-38, 4-[4-(3-dimethylcarbamoyl-4-{[6-methyl-2-(4-trifluoromethylphenyl)pyridine-3-carbonyl]amino}phenyl)butyryloxy]-3-fluoro-5-methoxybenzoic acid isopropyl ester]
8 | 98 | 104 | 5 | 2 | 0 | 0 | COC(=O)c1cc(OC)c(OC(=O)CCCc2ccc(NC(=O)c3ccc(C)nc3-c3ccc(C(F)(F)F)cc3)c(C(=O)N(C)C)c2)c(OC)c1 [Compound 1-39, 4-[4-(3-dimethylcarbamoyl-4-{[6-methyl-2-(4-trifluoromethylphenyl)pyridine-3-carbonyl]amino}phenyl)butyryloxy]-3,5-dimethoxybenzoic acid methyl ester]
9 | 100 | 102 | 5 | 0 | 0 | 0 | CCOc1cc(C(=O)OC)cc(Cl)c1OC(=O)CCCc1ccc(NC(=O)c2ccc(C)nc2-c2ccc(C(F)(F)F)cc2)c(C(=O)N(C)C)c1 [Compound 1-40, 3-chloro-4-[4-(3-dimethylcarbamoyl-4-{[6-methyl-2-(4-trifluoromethylphenyl)pyridine-3-carbonyl]amino}phenyl)butyryloxy]-5-ethoxybenzoic acid methyl ester]
10 | 103 | 106 | 4 | 0 | 37 | 0 | COC(=O)c1cc(C)c(OC(=O)CCCc2ccc(NC(=O)c3ccc(C)nc3-c3ccc(C(F)(F)F)cc3)c(C(=O)N(C)C)c2)c(F)c1 [Compound 1-41, 4-[4-(3-dimethylcarbamoyl-4-{[6-methyl-2-(4-trifluoromethylphenyl)pyridine-3-carbonyl]amino}phenyl)butyryloxy]-3-fluoro-5-methylbenzoic acid methyl ester]
11 | 103 | 103 | 5 | 0 | 52 | 0 | CCc1cc(C(=O)OC)cc(F)c1OC(=O)CCCc1ccc(NC(=O)c2ccc(C)nc2-c2ccc(C(F)(F)F)cc2)c(C(=O)N(C)C)c1 [Compound 1-42, 4-[4-(3-dimethylcarbamoyl-4-{[6-methyl-2-(4-trifluoromethylphenyl)pyridine-3-carbonyl]amino}phenyl)butyryloxy]-3-ethyl-5-fluorobenzoic acid methyl ester]
12 | 101 | 103 | 4 | 2 | 13 | 0 | CCOC(=O)c1cc(OC)c(OC(=O)CCCc2ccc(NC(=O)c3ccc(C)nc3-c3ccc(C(F)(F)F)cc3)c(C(=O)N(C)C)c2)c(OC)c1 [Compound 1-43, 4-[4-(3-dimethylcarbamoyl-4-{[6-methyl-2-(4-trifluoromethylphenyl)pyridine-3-carbonyl]amino}phenyl)butyryloxy]-3,5-dimethoxybenzoic acid ethyl ester]
13 | 99 | 100 | 12 | 4 | 13 | 0 | COc1cc(C(=O)OC(C)C)cc(OC)c1OC(=O)CCCc1ccc(NC(=O)c2ccc(C)nc2-c2ccc(C(F)(F)F)cc2)c(C(=O)N(C)C)c1 [Compound 1-44, 4-[4-(3-dimethylcarbamoyl-4-{[6-methyl-2-(4-trifluoromethylphenyl)pyridine-3-carbonyl]amino}phenyl)butyryloxy]-3,5-dimethoxybenzoic acid isopropyl ester]
